Reference: US20250283056A1, “MODIFIED O-[…] USEFUL FOR PRODUCTION OF O-METHYLATED PHENOLIC NATURAL PRODUCTS” (The University of Hong Kong, priority 2024, published 2025)
Read-outs that look alike come from different tables or passages of the source.

How the values were obtained:
[1] = molecular target: T1, SbCOMT (Sorghum bicolor, UniProt Q84X55); assay: Isothermal titration calorimetry (ITC), SbCOMT wild type; format: binding
Experimental: (§1) Isothermal titration calorimetry (ITC) assays were conducted with MicroCal iTC200 (Malvern Panalytical, UK). […] Both cell sample and titrant were equilibrated to ITC buffer consisting of 100 mM HEPES pH 7.9 with 2.5% (v/v) PEG 400. For ITC assays involving pterostilbene, PEG 400 concentration was increased to 5% (v/v). Each run incorporated an initial delay of 60 s prior to the first injection (0.5 μl) and spaced 150 s between the subsequent 19 injections (2.0 μl) at 25° C. During the runs, the cell was continuously stirred at 750 rpm by flat paddle. Results were analysed based on the 2nd to 20th injections using the Origin (MicroCal Software, USA) and PEAQ-ITC software (Malvern Panalytical, UK).

[2] = molecular target: SbSOMT E310A (Sorghum bicolor, UniProt A0A1B6PFV1, E310A); assay: biochemical; format: binding
Experimental: (§2) Desired mutations of SbSOMT were introduced into its construct using specific primers (Table 11). Expression constructs were transformed into Rosetta™ (DE3) competent Escherichia coli cells (Novagen, Germany). Protein expression was induced with 0.1 mM Isopropyl-β-thiogalactopyranoside (IPTG) overnight at 16° C. E. coli cells were harvested, resuspended in lysis buffer (20 mM Tris buffer pH 7.9, 300 mM NaCl, 2.5 mM β-mercaptoethanol), and lysed by sonication. Crude proteins were loaded onto a HisTrap HP column (Cytiva, USA) connected to a AKTA pure chromatography system (Cytiva, USA). Column was washed with 15 column volumes of lysis buffer with 50 mM imidazole. Proteins were eluted over a gradient of 50-500 mM imidazole. Eluate fractions with the target OMT were pooled, digested with TEV protease, and simultaneously dialyzed against a low salt buffer (20 mM Tris pH 7.9, 50 mM NaCl, 2.5 mM β-mercaptoethanol) overnight at 4° C. The dialyzed sample was filtered and flowed through HisTrap to remove His-tagged components. The flowthrough was then loaded to HiTrap Q FF columns (Cytiva, USA) over a gradient of 50-1000 mM NaCl. Polishing was achieved via size-exclusion chromatography using the storage buffer (100 mM HEPES pH 7.9, 100 mM NaCl) as mobile phase. SsSTS was purified under the same conditions except that the pH was adjusted to 7.0 for all buffers. Proteins were concentrated by ultrafiltration and flash frozen for storage at −80° C.
as §1

[3] = molecular target: T2, SbSOMT (Sorghum bicolor, UniProt A0A1B6PFV1); assay: In vitro OMT enzyme assay, recombinant SbSOMT; format: biochemical; settings: for O-methylation of hydroxycinnamic acids: two-hour incubation with 100 μM substrate
Experimental: (§3) To screen for OMT activities, purified stilbene products of enzyme assays were separated by a Synergi C18 column (Synergi 4μ Fusion RP 80 Å, 50×2 mm, Phenomenex, USA) under a flow rate of 0.5 ml min-1 over a 6 min linear gradient of 10%-90% B (described below). […] Meanwhile, purified phenylpropanoid products of enzyme assays were separated on the same column connected to a HP1100 series HPLC system (Agilent Technologies, USA) linked to an AP3200-QTRAP mass spectrometer (AB Sciex, China) operating under the multiple-reaction-monitoring (MRM) mode. To quantify these products, assay products were separated on a Kinetex C18 column (Kinetex 2.6 μm C18 100 Å, 100×2.1 mm, Phenomenex, USA) connected to a HP1100 series HPLC system (Agilent Technologies, USA) linked to an AP3200-QTRAP mass spectrometer (AB Sciex, China) operating under the multiple-reaction-monitoring (MRM) mode. A linear gradient of 10%-90% B under a flow rate of 0.3 ml min-1 over 6 min was used to further enhance sensitivity. Total metabolites from all plant tissues were separated by the same Kinetex C18 column connected to the X500R QTOF-HRMS system. A linear gradient under a flow rate of 0.3 ml min-1 over a 20 min linear gradient of 10%-90% B was used.
(§4) Reaction products were extracted twice with ethyl acetate. […] All reactions were done in triplicates.

[4] = molecular target: T1, SbCOMT; assay: In vitro OMT enzyme assay, recombinant SbCOMT; format: biochemical; settings: for O-methylation of hydroxycinnamic acids to ferulic acid / sinapic acid: two-hour incubation with 100 μM substrate
Experimental: as §3, §4

[5] = test system: SsCOMT; assay: In vitro OMT enzyme assay, recombinant SsCOMT; format: biochemical, Saccharum spontaneum; settings: two-hour incubation with 100 μM substrate
Experimental: as §3, §4

[6] = molecular target: T2, SbSOMT; assay: Isothermal titration calorimetry (ITC), SbSOMT wild type; format: binding
Experimental: as §1

[7] = molecular target: SsCOMT; assay: Isothermal titration calorimetry (ITC), SsCOMT wild type; format: binding, Saccharum spontaneum; settings: 25° C., SsCOMT WT, mean ± standard error from curve fitting
Experimental: as §1

[8] = molecular target: T3, SbSOMT D283A (Sorghum bicolor, UniProt A0A1B6PFV1, D283A); assay: biochemical
Experimental: as §2, §1

[9] = molecular target: T4, SbSOMT E342A (Sorghum bicolor, UniProt A0A1B6PFV1, E342A); assay: biochemical
Experimental: as §2, §1

[10] = molecular target: SbSOMT H282N/D283A (Sorghum bicolor, UniProt A0A1B6PFV1, D283A/H282N); assay: biochemical
Experimental: as §2, §1

[11] = molecular target: SbSOMT I144N (Sorghum bicolor, UniProt A0A1B6PFV1, I144N); assay: biochemical
Experimental: as §2, §1

[12] = molecular target: SbSOMT F337N; assay: ITC, SbSOMT F337N mutant protein; format: binding, Sorghum bicolor
Experimental: as §2, with “Polishing was achieved via size-exclusion chromatography using the storage buffer (100 mM HEPES pH 7.9, 100 mM NaCl) as mobile phase. SsSTS was purified under the same conditions except that the pH was adjusted to 7.0 for all buffers. Proteins were concentrated by ultrafiltration and flash frozen for storage at −80° C.” left out
(§5) Isothermal titration calorimetry (ITC) assays were conducted with MicroCal iTC200 (Malvern Panalytical, UK). […] Results were analysed based on the 2nd to 20th injections using the Origin (MicroCal Software, USA) and PEAQ-ITC software (Malvern Panalytical, UK).

[13] = molecular target: SbSOMT I144N/F337N; assay: ITC, SbSOMT I144N/F337N mutant protein; format: binding, Sorghum bicolor
Experimental: as §2, with “Polishing was achieved via size-exclusion chromatography using the storage buffer (100 mM HEPES pH 7.9, 100 mM NaCl) as mobile phase. SsSTS was purified under the same conditions except that the pH was adjusted to 7.0 for all buffers. Proteins were concentrated by ultrafiltration and flash frozen for storage at −80° C.” left out
as §5

[14] = test system: SbOMT4; assay: In vitro OMT enzyme assay, recombinant SbOMT4; format: biochemical, Sorghum bicolor
Experimental: as §3, §4

[15] = test system: SbSOMT H282A; assay: Catalytic assay, SbSOMT H282A mutant protein; format: biochemical, Sorghum bicolor; settings: one-hour incubation
Description: (§6) Data are expressed as yields relative to that of wild-type SbSOMT protein (WT). […] Data are expressed as yields relative to that of wild-type SbSOMT protein (WT). Values refer to means±SD (n=3). Asterisks indicate significant differences between mutant protein and WT (Student's t-test, ***: p<0.001). Tricin was used as an internal standard for quantitation. […] Dots represent individual data points.
(§7) Desired mutations of SbSOMT were introduced into its construct using specific primers (Table 11). Expression constructs were transformed into Rosetta™ (DE3) competent Escherichia coli cells (Novagen, Germany). Protein expression was induced with 0.1 mM Isopropyl-β-thiogalactopyranoside (IPTG) overnight at 16° C. E. coli cells were harvested, resuspended in lysis buffer (20 mM Tris buffer pH 7.9, 300 mM NaCl, 2.5 mM β-mercaptoethanol), and lysed by sonication. […]
(§8) For initial screening of OMT activities, purified OMT enzymes (10 μg) were incubated in 100 mM HEPES buffer (pH 7.9), 200 μM S-adenosyl-L-methionine (SAM) and 100 μM of phenylpropanoid or stilbene substrates (final volume 200 μl) at 30° C. for 2 h. Enzyme kinetics were determined by incubating 1 μg protein with 100 mM HEPES buffer (pH 7.9), 300 μM SAM, and stilbene concentrations ranging from 5 to 200 μM at 30° C. for 5 min. […]

[16] = molecular target: T3, SbSOMT D283A; settings: SbSOMT D283A incubated with resveratrol, one hour
Description: as §6, §7, §8

[17] = molecular target: T4, SbSOMT E342A; settings: SbSOMT E342A incubated with resveratrol, one hour
Description: as §6, §7, §8

[18] = test system: SbSOMT F337N; assay: Catalytic assay, SbSOMT F337N mutant protein; format: biochemical, Sorghum bicolor; settings: SbSOMT F337N vs WT, resveratrol, one-hour incubation
Description: as §6, §7, §8

[19] = test system: SbSOMT I144N/F337N; assay: Catalytic assay, SbSOMT I144N/F337N mutant protein; format: biochemical, Sorghum bicolor; settings: resveratrol, one-hour incubation
Description: as §6, §7, §8

[20] = molecular target: the molecule itself; assay: X-ray crystallography, SbSOMT co-crystallised with stilbenes with or without beta-NAD
Experimental: Data were analysed using pipelines provided in CCP4 suite⁷⁵. Data reduction was performed using AIMLESS⁷⁶. […] The built models were iteratively refined through automated REFMAC5 refinement and manual refinement in COOT^{81, 82}. Validation and assessment of structure quality were performed using MolProbity and OneDep prior to finalization^{83, 84}.

[21] = two-hour incubation with 100 μM resveratrol

COc1cc(/C=C/c2ccc(O)cc2)cc(OC)c1 [Pterostilbene, pterostilbene]
Kd ([1]; ITC, 25° C., SbCOMT WT, mean ± standard error from curve fitting, read-out: Kd): 3.99 µM
Kd [2]: 6.04 ± 2.08 µM

O=C(O)/C=C/c1ccc(O)c(O)c1 [caffeic acid]
O-methylation of hydroxycinnamic acids [3]: failed to methylate
O-methylation of hydroxycinnamic acids to ferulic acid / sinapic acid [4]: efficiently converted
formation of O-methylated product [5]: generated

Oc1ccc(C=Cc2cc(O)cc(O)c2)cc1 [Resveratrol, resveratrol]
Kd [6]: 4.69 µM
Kd [1]: 1.55 µM
Kd [7]: 2.78 ± 0.33 µM
Kd [8]: 1.31 µM
Stoichiometry, N ([8]; SbSOMT mutant D283A, ITC): 0.58 ± 0.01
Kd [9]: 11.1 ± 0.75 µM
Stoichiometry, N ([9]; SbSOMT mutant E342A, ITC): 0.75 ± 0.01
Kd [10]: 32.9 µM
Stoichiometry, N ([10]; SbSOMT mutant H282N/D283A, ITC): 0.61 ± 0.17
Kd [11]: 152 ± 31.1 µM
Kd ([11]; SbSOMT mutant I144N, N fixed at 0.6 to estimate the Kd, ± SE): significantly weakened binding
Kd [2]: 18.5 ± 2.58 µM
Stoichiometry, N ([2]; SbSOMT mutant E310A, ITC): 0.36 ± 0.04
Kd [12]: No binding
Kd ([12]; listed as resveratrol): undetectable binding affinities
Kd [13]: No binding
Kd ([13]; listed as resveratrol): undetectable binding affinities
conversion of resveratrol into pterostilbene [3, 21]: about 60%
resveratrol 3,5-bis-O-methylation activities [4, 21]: poor resveratrol 3,5-bis-O-methylation activities
SOMT activities with resveratrol as substrate [14]: minimal SOMT activities
formation of O-methylated product [5]: only small amounts of pinostilbene were generated
catalytic activity with resveratrol [15]: catalytically defective
pterostilbene formation [16]: failed to generate pterostilbene
pterostilbene formation [17]: failed to generate pterostilbene
less pterostilbene produced compared to WT [18]: 97.7%
more pinostilbene accumulated compared to WT [18]: 50.8%
SOMT activities [19]: complete abolishment of SOMT activities

COc1cc(/C=C/C(=O)O)cc(O)c1O [5-hydroxyferulic acid]
O-methylation of hydroxycinnamic acids [3]: failed to methylate
O-methylation of hydroxycinnamic acids to ferulic acid / sinapic acid [4]: efficiently converted
formation of O-methylated product [5]: generated

B1: Sorghum bicolor stilbene O-methyltransferase (SbSOMT), wild type, recombinant (enzyme)
chain: GSYDSSSSSSNDSSARNEEDESCMFALKLLGGFAVPFTIKAVIELGVMDQLLTAERAMSAEELVAAAVAAQLPRPEVACTMVDRLLRFLASHSVVRCTTEVVVGTDDATTTTCCRRSYAASPVCKWFARNGVEDSVLPLGMMILNKTFLDSWQNITDAVLEGAAPFEKTYGMPMFEYLSTNGPLNTVFHEAMANHSMIITKKLLKFFRGFEGLDVLVDVGGGNGTTLQMIRGQYKNMRGINYDLPHVIAQAAPVEGVEHVGGSMFDNIPRGNAVLLKWILHDWDDKACIKILKNCYTALHVRGKVIVLEYVVPDEPEPTLAAQGAFELDLTMLVTFGSGKERTQREFSELAMEAGFSREFKATYIFANVWALEFTK
notes: One protomer is described here; also called SbSOMT, WT; Sb07g004710
binding result [20]: binds
